Measured values reported in patent US20190375708A1 (VenatoRx Pharmaceuticals, Inc., priority 2018, published 2019).
Like-named read-outs stand apart in the source and are kept apart here.

Assays:
[1] = In vitro cytotoxicity assay (MTT cell viability) in HepG2 cells; assay type: cell-based, human; details: human
Experimental: To evaluate antiviral selectivity, the cytotoxic activity of each compound was determined using a standard cell viability assay performed on the parental HepG2 cell line. Cell viability was determined by measuring the conversion of 3-(4,5-dimethylthiazol-2-yl)-2,5-diphenyltetrazolium bromide (MTT) to the insoluble formazan salt crystal that occurs in live cells. Briefly, HepG2 cells were seeded in 96-well plates at a density of 20,000 cells per well in EMEM+10% FBS (complete growth medium) and allowed to adhere overnight in a 37° C., 5% CO2 humidified incubator. The next day, test agents were prepared by performing 8 half-log10 serial dilutions in 100% DMSO at 200× the final desired concentration in the assay. Compounds were tested over a range of concentrations from 30 μM to 1.0 nM in the assay. HepG2 cells were incubated in the presence of various concentrations of CAMs for 7 days in a 37° C., 5% CO2 humidified incubator. At the completion of the 7-day incubation period, MTT reagent was added to each well and the mixture was incubated for an additional 3-4 hours. At the completion of the incubation period, all wells were aspirated to remove the culture medium. The formazan crystals were solubilized from the cell monolayers with 100% DMSO. Plates were briefly mixed on an orbital shaker and absorbance was measured at 492 nm using a Perkin-Elmer EnVision multi-label plate reader. All absorbance values were converted to a percentage of the signal obtained from the vehicle treated controls. Absorbance values at 492 nm are directly proportional to the number of viable cells present in the sample. A CC50 value (cytotoxic concentration that results in loss of 50% cell viability) was calculated from the dose-response curve by 4-parameter, non-linear regression analysis using the GraphPad Prism software. The positive control compound, staurosporine, reduced the viability of HepG2 cells in a dose-dependent manner (CC50=100 nM).

[2] = test system: HBV replication in HepAD38 cells; experiment: Anti-HBV replication assay in HepAD38 cells (QPCR of extracellular HBV DNA); assay type: cell-based, HBV (genotype D, serotype ayw); details: Hepatitis B virus
Experimental: The anti-HBV activity of the Capsid Assembly Modulators (CAMs) was evaluated in a cell based assay utilizing the human hepatoma cell line HepAD38 (Ladner, S K., et al., 1998). HepAD38 cells were derived from the parental line, HepG2, that were stably transfected with a construct containing an HBV genome (genotype D, serotype ayw) under the control of a tetracycline repressible CMV promoter. Upon removal of tetracycline, viral pre-genomic RNA (pgRNA) and mRNAs are expressed and infectious viral particles are assembled and secreted into the culture medium providing a reliable, robust system to measure multiple steps of the HBV life cycle. Disruption of capsid formation results in reduced levels of DNA-containing virus particles that are released into the culture supernatant. To quantify the effect of CAMs on HBV replication, we developed a sensitive QPCR-based assay that measures extracellular HBV DNA levels upon treatment of HepAD38 cells with various concentrations of test compounds.
HepAD38 cells were maintained in DMEM/F12 medium containing 10% FBS, 400 μg/mL G418 and 0.3 μg/mL tetracycline (tet+ media) to maintain repression of HBV replication. To evaluate each compound, HepAD38 cells were seeded into 24-well collagen coated culture plates (Corning BioCoat) at a density of 200,000 cells per well in 1 mL of medium without tetracycline (tet-media) and allowed to adhere overnight at 37° C., 5% CO2 in a humidified incubator. The following day, media was refreshed and a dose range of each compound was prepared by performing 1 log10 serial dilutions in 100% DMSO at 200× the desired assay concentration. Dilutions were then added to the cells resulting in a final dose range of 1 μM to 10 μM and the plates were returned to the incubator. Following 7 days of incubation, culture supernatants were harvested and HBV DNA levels were evaluated by QPCR and compared to the vehicle treated control wells (i.e. DMSO alone).
To quantify HBV DNA levels, cell culture supernatants were diluted 1:10 in sterile, nuclease-free water (Gibco). The diluted supernatants were subsequently added to a PCR master mix containing 1× Roche Light Cycler Master Mix, 0.5 μM forward primer, 0.5 μM reverse primer (Fwd: 5′-[…] (SEQ ID NO 1); Rev: 5′-[…] (SEQ ID NO 2)), 0.2 μM Roche Universal Probe Library Probe 25. The volume was brought to 20 μL with nuclease-free water and amplification of the HBV target sequence was performed using a Roche LightCycler 480 QPCR instrument. PCR extended out to 45 cycles with each cycle consisting of a denaturation step at 95° C. for 10 sec., followed by an annealing step at 60° C. for 10 sec. and a brief extension step at 72° C. for 1 sec.
Extracellular HBV DNA levels, expressed in copies/mL, were determined by comparison to a standard curve (10^2-10^9 copies/mL) using the Roche LightCycler analysis software. These values were subsequently converted to percent inhibition of HBV replication by dividing the HBV DNA levels in the experimental samples with those obtained from the vehicle control (˜1-2×10^5 copies/mL). Potency, expressed as an EC50 (the effective concentration required to inhibit 50% of HBV replication), was calculated from the dose-response curve using a 4-parameter non-linear regression analysis (GraphPad Prism). The nucleoside analog inhibitor entecavir was used as a positive control to validate each assay run. The EC50 value of entecavir in the HepAD38 assay was 0.5 nM, as previously reported in the literature.

[3] = 168 h, 7 days incubation, extracellular HBV DNA by QPCR, read-out: Anti-HBV EC50

Q: Which CC50 at 7 days [1] does the source give for `Cc1cc(NC(=O)c2c(C)c(C(=O)C(=O)NC3CCc4nc(N)sc4C3)n(C)c2C)cnc1F` (stereo in doubt) [Example 138, (S)-5-(2-((2-amino-4,5,6,7-tetrahydrobenzo[d]thiazol-6-yl)amino)-2-oxoacetyl)-N-(6-fluoro-5-methylpyridin-3-yl)-1,2,4-trimethyl-1H-pyrrole-3-carboxamide] here?
A: The CC50 at 7 days was 500 to 4990 nM.

Q: What about the EC50 [2, 3] of the same compound?
A: Its EC50 is < 50 nM.

Q: For `Cc1cc(NC(=O)c2cc(C(=O)C(=O)NC(C)(C)C)n(C)c2)ccc1F` [Example 1, 5-(2-(tert-butylamino)-2-oxocetyl)-N-(4-fluoro-3-methylphenyl)-1-methyl-1H-pyrrole-3-carboxamide], which CC50 at 7 days [1] is on record?
A: The CC50 at 7 days was > 30000 nM.

Q: And the EC50 [2, 3]?
A: The EC50 was < 50 nM.

Q: Which CC50 at 7 days [1] does the source give for `Cc1cc(NC(=O)c2c(C)c(C(=O)C(=O)NC(C)(C)C)n(C)c2C)ccc1F` [Example 2, 5-(2-(tert-butylamino)-2-oxoacetyl)-N-(4-fluoro-3-methylphenyl)-1,2,4-trimethyl-1H-pyrrole-3-carboxamide] here?
A: The CC50 at 7 days was > 30000 nM.

Q: What about the EC50 [2, 3] of the same compound?
A: The EC50 was < 50 nM.

Q: Which CC50 at 7 days [1] does the source give for `Cc1[nH]c(C(=O)C(=O)NC(C)(C)C)c(C)c1C(=O)Nc1ccc(F)c(Cl)c1` [Example 3, 5-(2-(tert-butylamino)-2-oxoacetyl)-N-(3-chloro-4-fluorophenyl)-2,4-dimethyl-1H-pyrrole-3-carboxamide] here?
A: Its CC50 at 7 days is 5000 to 30000 nM.

Q: What about the EC50 [2, 3] of the same compound?
A: The EC50 was < 50 nM.

Q: Which CC50 at 7 days [1] does the source give for `Cc1c(C(=O)Nc2ccc(F)c(F)c2)c(C)n(C)c1C(=O)C(=O)NC(C)(C)C` [Example 4, 5-(2-(tert-butylamino)-2-oxoacetyl)-N-(3,4-difluorophenyl)-1,2,4-trimethyl-1H-pyrrole-3-carboxamide] here?
A: The CC50 at 7 days was > 30000 nM.

Q: And the EC50 [2, 3]?
A: Its EC50 is < 50 nM.

Q: With `Cc1cc(NC(=O)c2c(C)c(C(=O)C(=O)NC(C)(C)CF)n(C)c2C)ccc1F` [Example 6, 5-(2-((1-fluoro-2-methylpropan-2-yl)amino)-2-oxoacetyl)-N-(4-fluoro-3-methylphenyl)-1,2,4-trimethyl-1H-pyrrole-3-carboxamide] as the compound, how does the CC50 at 7 days [1] read?
A: Its CC50 at 7 days is > 30000 nM.

Q: And the EC50 [2, 3]?
A: The EC50 was < 50 nM.

Q: Which results are given for `Cc1cc(NC(=O)c2c(C)c(C(=O)C(=O)NC3(CO)CC3)n(C)c2C)ccc1F` [Example 7, N-(4-fluoro-3-methylphenyl)-5-(2-((1-(hydroxymethyl)cyclopropyl)amino)-2-oxoacetyl)-1,2,4-trimethyl-1H-pyrrole-3-carboxamide]?
A: CC50 at 7 days [1]: > 30000 nM; EC50 [2, 3]: < 50 nM

Q: Which results are given for `Cc1cc(NC(=O)c2c(C)c(C(=O)C(=O)NC(C)(C)CO)n(C)c2C)ccc1F` [Example 8, N-(4-fluoro-3-methylphenyl)-5-(2-((1-hydroxy-2-methylpropan-2-yl)amino)-2-oxoacetyl)-1,2,4-trimethyl-1H-pyrrole-3-carboxamide]?
A: CC50 at 7 days [1]: > 30000 nM; EC50 [2, 3]: < 50 nM

Q: With `Cc1cc(NC(=O)c2c(C)c(C(=O)C(=O)NC(C)(C)C(F)(F)F)n(C)c2C)ccc1F` [Example 9, N-(4-fluoro-3-methylphenyl)-1,2,4-trimethyl-5-(2-oxo-2-((1,1,1-trifluoro-2-methylpropan-2-yl)amino)acetyl)-1H-pyrrole-3-carboxamide] as the compound, how does the CC50 at 7 days [1] read?
A: Its CC50 at 7 days is > 30000 nM.

Q: What about the EC50 [2, 3] of the same compound?
A: Its EC50 is < 50 nM.

Q: For `Cc1cc(NC(=O)c2c(C)c(C(=O)C(=O)NC(C)C(F)(F)F)n(C)c2C)ccc1F` (centres unmarked) [Example 10, N-(4-fluoro-3-methylphenyl)-1,2,4-trimethyl-5-(2-oxo-2-((1,1,1-trifluoropropan-2-yl)amino)acetyl)-1H-pyrrole-3-carboxamide], which CC50 at 7 days [1] is on record?
A: The CC50 at 7 days was 5000 to 30000 nM.

Q: What about the EC50 [2, 3] of the same compound?
A: The EC50 was < 50 nM.

Q: With `Cc1cc(NC(=O)c2c(C)c(C(=O)C(=O)NC(C)(C)CCO)n(C)c2C)ccc1F` [Example 11, N-(4-fluoro-3-methylphenyl)-5-(2-((4-hydroxy-2-methylbutan-2-yl)amino)-2-oxoacetyl)-1,2,4-trimethyl-1H-pyrrole-3-carboxamide] as the compound, how does the CC50 at 7 days [1] read?
A: The CC50 at 7 days was > 30000 nM.

Q: And the EC50 [2, 3]?
A: Its EC50 is < 50 nM.

Q: What does the source list for `Cc1cc(NC(=O)c2c(C)c(C(=O)C(=O)NC3(CO)CCC3)n(C)c2C)ccc1F` [Example 12, N-(4-fluoro-3-methylphenyl)-5-(2-((1-(hydroxymethyl)cyclobutyl)amino)-2-oxoacetyl)-1,2,4-trimethyl-1H-pyrrole-3-carboxamide]?
A: CC50 at 7 days [1]: > 30000 nM; EC50 [2, 3]: < 50 nM

Q: Which results are given for `Cc1cc(NC(=O)c2c(C)c(C(=O)C(=O)NC3(CO)CCOC3)n(C)c2C)ccc1F` (centres unmarked) [Example 13, N-(4-fluoro-3-methylphenyl)-5-(2-((3-(hydroxymethyl)tetrahydrofuran-3-yl)amino)-2-oxoacetyl)-1,2,4-trimethyl-1H-pyrrole-3-carboxamide]?
A: CC50 at 7 days [1]: > 30000 nM; EC50 [2, 3]: < 50 nM

Q: Which CC50 at 7 days [1] does the source give for `Cc1cc(NC(=O)c2c(C)c(C(=O)C(=O)NC34CC5CC(CC(C5)C3)C4)n(C)c2C)ccc1F` [Example 14, 5-(2-(((3s,5s,7s)-adamantan-1-yl)amino)-2-oxoacetyl)-N-(4-fluoro-3-methylphenyl)-1,2,4-trimethyl-1H-pyrrole-3-carboxamide] here?
A: The CC50 at 7 days was 5000 to 30000 nM.

Q: What about the EC50 [2, 3] of the same compound?
A: Its EC50 is < 50 nM.

Q: Which results are given for `Cc1cc(NC(=O)c2c(C)c(C(=O)C(=O)NC34CC5CC(CC(O)(C5)C3)C4)n(C)c2C)ccc1F` [Example 15, N-(4-fluoro-3-methylphenyl)-5-(2-(((1r,3s,5R,7S)-3-hydroxyadamantan-1-yl)amino)-2-oxoacetyl)-1,2,4-trimethyl-1H-pyrrole-3-carboxamide]?
A: CC50 at 7 days [1]: > 30000 nM; EC50 [2, 3]: < 50 nM

Q: For `Cc1cc(NC(=O)c2c(C)c(C(=O)C(=O)NC3C4CC5CC(C4)CC3C5)n(C)c2C)ccc1F` (centres unmarked) [Example 17, 5-(2-(((1r,3r)-adamantan-2-yl)amino)-2-oxoacetyl)-N-(4-fluoro-3-methylphenyl)-1,2,4-trimethyl-1H-pyrrole-3-carboxamide], which CC50 at 7 days [1] is on record?
A: Its CC50 at 7 days is 500 to 4990 nM.

Q: What about the EC50 [2, 3] of the same compound?
A: Its EC50 is < 50 nM.

Q: For `Cc1c(C(=O)Nc2ccc(F)c(Cl)c2)c(C)n(C)c1C(=O)C(=O)Nc1ccc(F)cn1` [Example 310, N-(3-chloro-4-fluorophenyl)-5-(2-((5-fluoropyridin-2-yl)amino)-2-oxoacetyl)-1,2,4-trimethyl-1H-pyrrole-3-carboxamide], which EC50 [2, 3] is on record?
A: The EC50 was < 50 nM.

Q: Which EC50 ([2]; positive control, read-out: EC50 in the HepAD38 assay) does the source give for `C=C1[C@H](CO)[C@@H](O)C[C@@H]1n1cnc2c(=O)[nH]c(N)nc21` [entecavir, reference compound] here?
A: The EC50 was 0.5 nM.

Q: Which CC50 at 7 days ([1]; positive control, HepG2 cells, 7 days, MTT, read-out: CC50 (loss of 50% cell viability)) does the source give for `CN[C@@H]1C[C@H]2O[C@@](C)([C@@H]1OC)n1c3ccccc3c3c4c(c5c6ccccc6n2c5c31)C(=O)NC4` [staurosporine, reference compound] here?
A: Its CC50 at 7 days is 100 nM.
